# Data as given in a compilation of properties of binary mixtures (doi:10.1016/j.fluid.2020.112621).
# Test: xn = mol fraction of the nth substance listed
# Details: 101 kPa
smiles,measurement,setting,value
CCCC(=O)[O-].CC[NH+](CC)CCO + CCCC[n+]1ccn(C)c1.COP(=O)([O-])OC,viscosity,"278.15 K, x1 = 0.1023",2058 mPa·s
same,viscosity,"278.15 K, x1 = 0.1989",1152.2 mPa·s
same,viscosity,"278.15 K, x1 = 0.3026",671 mPa·s
same,viscosity,"278.15 K, x1 = 0.3985",445 mPa·s
same,viscosity,"278.15 K, x1 = 0.498",322.4 mPa·s
same,viscosity,"278.15 K, x1 = 0.6001",255.2 mPa·s
same,viscosity,"278.15 K, x1 = 0.6613",231 mPa·s
same,viscosity,"278.15 K, x1 = 0.8788",191 mPa·s
same,viscosity,"283.15 K, x1 = 0.1023",1309.9 mPa·s
same,viscosity,"283.15 K, x1 = 0.1989",764 mPa·s
same,viscosity,"283.15 K, x1 = 0.3026",459 mPa·s
same,viscosity,"283.15 K, x1 = 0.3985",311.5 mPa·s
same,viscosity,"283.15 K, x1 = 0.498",228.5 mPa·s
same,viscosity,"283.15 K, x1 = 0.6613",165.4 mPa·s
same,viscosity,"283.15 K, x1 = 0.8006",140.9 mPa·s
same,viscosity,"283.15 K, x1 = 0.8788",136.5 mPa·s
same,viscosity,"288.15 K, x1 = 0.1989",522 mPa·s
same,viscosity,"288.15 K, x1 = 0.3026",322.9 mPa·s
same,viscosity,"288.15 K, x1 = 0.3985",223.4 mPa·s
same,viscosity,"288.15 K, x1 = 0.498",165.9 mPa·s
same,viscosity,"288.15 K, x1 = 0.6001",133.2 mPa·s
same,viscosity,"288.15 K, x1 = 0.8006",103.2 mPa·s
same,viscosity,"288.15 K, x1 = 0.8788",99.6 mPa·s
same,viscosity,"288.15 K, x1 = 1",96.9 mPa·s
same,viscosity,"293.15 K, x1 = 0.1023",587 mPa·s
same,viscosity,"293.15 K, x1 = 0.1989",367 mPa·s
same,viscosity,"293.15 K, x1 = 0.3026",233 mPa·s
same,viscosity,"293.15 K, x1 = 0.6613",90.5 mPa·s
same,viscosity,"293.15 K, x1 = 0.8006",77.1 mPa·s
same,viscosity,"293.15 K, x1 = 1",71.6 mPa·s
same,viscosity,"298.15 K, x1 = 0.1023",411 mPa·s
same,viscosity,"298.15 K, x1 = 0.3026",172.1 mPa·s
same,viscosity,"298.15 K, x1 = 0.3985",122.9 mPa·s
same,viscosity,"298.15 K, x1 = 0.498",93.3 mPa·s
same,viscosity,"298.15 K, x1 = 0.6001",75.8 mPa·s
same,viscosity,"298.15 K, x1 = 0.6613",69 mPa·s
same,viscosity,"298.15 K, x1 = 0.8006",58.8 mPa·s
same,viscosity,"298.15 K, x1 = 0.8788",56.4 mPa·s
same,viscosity,"298.15 K, x1 = 1",54 mPa·s
same,viscosity,"303.15 K, x1 = 0.1023",294.9 mPa·s
same,viscosity,"303.15 K, x1 = 0.3026",129.8 mPa·s
same,viscosity,"303.15 K, x1 = 0.3985",94 mPa·s
same,viscosity,"303.15 K, x1 = 0.498",72 mPa·s
same,viscosity,"303.15 K, x1 = 0.6613",53.58 mPa·s
same,viscosity,"303.15 K, x1 = 0.8006",45.58 mPa·s
same,viscosity,"303.15 K, x1 = 0.8788",43.6 mPa·s
same,viscosity,"303.15 K, x1 = 1",41.42 mPa·s
same,viscosity,"308.15 K, x1 = 0.1023",216.6 mPa·s
same,viscosity,"308.15 K, x1 = 0.1989",146.7 mPa·s
same,viscosity,"308.15 K, x1 = 0.3026",99.8 mPa·s
same,viscosity,"308.15 K, x1 = 0.498",56.55 mPa·s
same,viscosity,"308.15 K, x1 = 0.6001",46.34 mPa·s
same,viscosity,"308.15 K, x1 = 0.6613",42.29 mPa·s
same,viscosity,"308.15 K, x1 = 0.8006",35.94 mPa·s
same,viscosity,"308.15 K, x1 = 0.8788",34.28 mPa·s
same,viscosity,"308.15 K, x1 = 1",32.34 mPa·s
same,viscosity,"313.15 K, x1 = 0.1023",162.7 mPa·s
same,viscosity,"313.15 K, x1 = 0.1989",112.5 mPa·s
same,viscosity,"313.15 K, x1 = 0.3985",57.98 mPa·s
same,viscosity,"313.15 K, x1 = 0.6001",37.1 mPa·s
same,viscosity,"313.15 K, x1 = 0.8006",28.77 mPa·s
same,viscosity,"313.15 K, x1 = 0.8788",27.36 mPa·s
same,viscosity,"313.15 K, x1 = 1",25.64 mPa·s
same,viscosity,"318.15 K, x1 = 0.1989",87.9 mPa·s
same,viscosity,"318.15 K, x1 = 0.3026",61.99 mPa·s
same,viscosity,"318.15 K, x1 = 0.3985",46.61 mPa·s
same,viscosity,"318.15 K, x1 = 0.498",36.5 mPa·s
same,viscosity,"318.15 K, x1 = 0.6613",27.53 mPa·s
same,viscosity,"318.15 K, x1 = 0.8788",22.14 mPa·s
same,viscosity,"318.15 K, x1 = 1",20.63 mPa·s
same,viscosity,"323.15 K, x1 = 0.1023",96.9 mPa·s
same,viscosity,"323.15 K, x1 = 0.3026",49.98 mPa·s
same,viscosity,"323.15 K, x1 = 0.3985",37.99 mPa·s
same,viscosity,"323.15 K, x1 = 0.498",29.93 mPa·s
same,viscosity,"323.15 K, x1 = 0.6001",24.77 mPa·s
same,viscosity,"323.15 K, x1 = 0.8006",19.2 mPa·s
same,viscosity,"323.15 K, x1 = 0.8788",18.14 mPa·s
same,viscosity,"323.15 K, x1 = 1",16.82 mPa·s
same,viscosity,"328.15 K, x1 = 0.1023",76.7 mPa·s
same,viscosity,"328.15 K, x1 = 0.1989",56.15 mPa·s
same,viscosity,"328.15 K, x1 = 0.3026",40.85 mPa·s
same,viscosity,"328.15 K, x1 = 0.3985",31.37 mPa·s
same,viscosity,"328.15 K, x1 = 0.498",24.84 mPa·s
same,viscosity,"328.15 K, x1 = 0.6613",18.87 mPa·s
same,viscosity,"328.15 K, x1 = 0.8006",15.97 mPa·s
same,viscosity,"328.15 K, x1 = 0.8788",15.04 mPa·s
same,viscosity,"328.15 K, x1 = 1",13.87 mPa·s
same,viscosity,"333.15 K, x1 = 0.1023",61.58 mPa·s
same,viscosity,"333.15 K, x1 = 0.1989",45.81 mPa·s
same,viscosity,"333.15 K, x1 = 0.3026",33.8 mPa·s
same,viscosity,"333.15 K, x1 = 0.3985",26.18 mPa·s
same,viscosity,"333.15 K, x1 = 0.498",20.85 mPa·s
same,viscosity,"333.15 K, x1 = 0.6001",17.35 mPa·s
same,viscosity,"333.15 K, x1 = 0.6613",15.88 mPa·s
same,viscosity,"333.15 K, x1 = 0.8006",13.42 mPa·s
same,viscosity,"333.15 K, x1 = 0.8788",12.6 mPa·s
same,viscosity,"333.15 K, x1 = 1",11.56 mPa·s
same,viscosity,"338.15 K, x1 = 0.1023",50.11 mPa·s
same,viscosity,"338.15 K, x1 = 0.1989",37.83 mPa·s
same,viscosity,"338.15 K, x1 = 0.3026",28.27 mPa·s
same,viscosity,"338.15 K, x1 = 0.3985",22.09 mPa·s
same,viscosity,"338.15 K, x1 = 0.498",17.68 mPa·s
same,viscosity,"338.15 K, x1 = 0.6001",14.74 mPa·s
same,viscosity,"338.15 K, x1 = 0.8788",10.66 mPa·s
same,viscosity,"343.15 K, x1 = 0.1023",41.29 mPa·s
same,viscosity,"343.15 K, x1 = 0.3026",23.89 mPa·s
same,viscosity,"343.15 K, x1 = 0.498",15.13 mPa·s
same,viscosity,"343.15 K, x1 = 0.6613",11.56 mPa·s
same,viscosity,"343.15 K, x1 = 0.8006",9.74 mPa·s
same,viscosity,"343.15 K, x1 = 0.8788",9.09 mPa·s
same,viscosity,"343.15 K, x1 = 1",8.27 mPa·s
same,viscosity,"348.15 K, x1 = 0.1023",34.41 mPa·s
same,viscosity,"348.15 K, x1 = 0.1989",26.65 mPa·s
same,viscosity,"348.15 K, x1 = 0.3026",20.38 mPa·s
same,viscosity,"348.15 K, x1 = 0.3985",16.18 mPa·s
same,viscosity,"348.15 K, x1 = 0.6001",10.92 mPa·s
same,viscosity,"348.15 K, x1 = 0.6613",9.99 mPa·s
same,viscosity,"348.15 K, x1 = 0.8006",8.41 mPa·s
same,viscosity,"348.15 K, x1 = 0.8788",7.82 mPa·s
same,viscosity,"348.15 K, x1 = 1",7.08 mPa·s
same,viscosity,"353.15 K, x1 = 0.1023",28.99 mPa·s
same,viscosity,"353.15 K, x1 = 0.1989",22.7 mPa·s
same,viscosity,"353.15 K, x1 = 0.3985",14.02 mPa·s
same,viscosity,"353.15 K, x1 = 0.498",11.35 mPa·s
same,viscosity,"353.15 K, x1 = 0.6001",9.51 mPa·s
same,viscosity,"353.15 K, x1 = 0.6613",8.69 mPa·s
same,viscosity,"358.15 K, x1 = 0.1023",24.65 mPa·s
same,viscosity,"358.15 K, x1 = 0.1989",19.51 mPa·s
same,viscosity,"358.15 K, x1 = 0.3026",15.22 mPa·s
same,viscosity,"358.15 K, x1 = 0.498",9.95 mPa·s
same,viscosity,"358.15 K, x1 = 0.6001",8.33 mPa·s
same,viscosity,"358.15 K, x1 = 0.8006",6.39 mPa·s
same,viscosity,"358.15 K, x1 = 0.8788",5.92 mPa·s
same,viscosity,"363.15 K, x1 = 0.1023",21.15 mPa·s
same,viscosity,"363.15 K, x1 = 0.1989",16.9 mPa·s
same,viscosity,"363.15 K, x1 = 0.3026",13.3 mPa·s
same,viscosity,"363.15 K, x1 = 0.3985",10.76 mPa·s
same,viscosity,"363.15 K, x1 = 0.498",8.77 mPa·s
same,viscosity,"363.15 K, x1 = 0.6001",7.36 mPa·s
same,viscosity,"363.15 K, x1 = 0.6613",6.72 mPa·s
same,viscosity,"363.15 K, x1 = 0.8006",5.63 mPa·s
same,viscosity,"363.15 K, x1 = 0.8788",5.2 mPa·s
same,viscosity,"363.15 K, x1 = 1",4.65 mPa·s
same,viscosity,"368.15 K, x1 = 0.1023",18.3 mPa·s
same,viscosity,"368.15 K, x1 = 0.1989",14.76 mPa·s
same,viscosity,"368.15 K, x1 = 0.3985",9.52 mPa·s
same,viscosity,"368.15 K, x1 = 0.498",7.78 mPa·s
same,viscosity,"368.15 K, x1 = 0.6001",6.53 mPa·s
same,viscosity,"368.15 K, x1 = 0.6613",5.97 mPa·s
same,viscosity,"368.15 K, x1 = 0.8006",4.99 mPa·s
same,viscosity,"368.15 K, x1 = 0.8788",4.6 mPa·s
same,viscosity,"373.15 K, x1 = 0.1023",15.96 mPa·s
same,viscosity,"373.15 K, x1 = 0.1989",12.97 mPa·s
same,viscosity,"373.15 K, x1 = 0.3026",10.37 mPa·s
same,viscosity,"373.15 K, x1 = 0.3985",8.47 mPa·s
same,viscosity,"373.15 K, x1 = 0.498",6.95 mPa·s
same,viscosity,"373.15 K, x1 = 0.6001",5.84 mPa·s
same,viscosity,"373.15 K, x1 = 0.6613",5.33 mPa·s
same,viscosity,"373.15 K, x1 = 0.8006",4.45 mPa·s
same,viscosity,"373.15 K, x1 = 0.8788",4.08 mPa·s
same,viscosity,"373.15 K, x1 = 1",3.61 mPa·s
